The subject of the first assay is HCV 1b-377-neo replicon cells. The assay can be described thus: HCV replicon assay, HCV 1b-377-neo replicon cells (1b FRET). The format is cell-based, Hepatitis C virus genotype 1b. The following applies: HCV 1b-377-neo replicon cells; HCV 1b genotype; read-out: EC50 range against HCV 1b (Table 2, Range). Summed up: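 FRET-based replicon assay in HCV 1b-377-neo cells, including a comparison line carrying the NS5A Y2065H mutation that confers resistance to a reference compound.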
One may read the EC50 as the concentration at which the effect is half-maximal. “(1R)-N,N-dimethyl-2-((2S)-2-(5-(4′-(2-((2S)-1- ((2R)-2-(4-morpholinyl)-2-phenylacetyl)-2- pyrrolidinyl)-1H-imidazol-5-yl)-4-biphenylyl)- 1H-imidazol-2-yl)-1-pyrrolidinyl)-2-oxo-1- phenylethanamine [Example 89]”: the EC50 was 0.001 to 0.999 nM.

As for “methyl (2-((2S)-2-(5-(4′-(2-((2S)-1-((2R)-2- (dimethylamino)-2-phenylacetyl)-2- pyrrolidinyl)-1H-imidazol-5-yl)-4-biphenylyl)- 1H-imidazol-2-yl)-1-pyrrolidinyl)-2- oxoethyl)carbamate [Example 91]”, the EC50 lay in the range of 0.001 to 0.999 nM.

As to “methyl ((1R)-2-((2S)-2-(5-(4′-(2-((2S)-1-(3- benzoylbenzyl)-2-pyrrolidinyl)-1H- imidazol-5-yl)-4-biphenylyl)-1H-imidazol-2- yl)-1-pyrrolidinyl)-2-oxo-1- phenylethyl)carbamate [Example 84-34]”, the EC50 fell in the range of 1 to 99 nM.

The assay is the same for the next values; noted with them: Hepatitis C virus, HCV 1b-377-neo replicon cells; HCV 1b genotype; read-out: EC50 range against HCV 1b (Table 2, Range).
Take `COC(=O)N[C@@H](CCN(C)C)C(=O)N1CCC[C@H]1c1ncc(-c2ccc(-c3ccc(-c4cnc([C@@H]5CCCN5C(=O)[C@H](CCN(C)C)NC(=O)OC)[nH]4)cc3)cc2)[nH]1` [cj-146, dimethyl (4,4′-biphenyldiylbis(1H-imidazole-5,2-diyl(2S)-2,1-pyrrolidinediyl((2S)-4-(dimethylamino)-1-oxo-1,2-butanediyl)))biscarbamate]: the EC50 was in the range of 100 to 999 nM.

Regarding `CN(C)[C@H](Cc1ccccc1)C(=O)N1CCC[C@H]1c1ncc(-c2ccc(-c3ccc(-c4cnc([C@@H]5CCCN5C(=O)[C@@H](Cc5ccccc5)N(C)C)[nH]4)cc3)cc2)[nH]1` [cj-147, (2R,2′R)-1,1′-(4,4′-biphenyldiylbis(1H-imidazole-5,2-diyl(2S)-2,1-pyrrolidinediyl))bis(N,N-dimethyl-1-oxo-3-phenyl-2-propanamine)], the EC50 fell in the range of 1 to 99 nM.

As for `COC(=O)N[C@@H](Cc1ccccc1)C(=O)N1CCC[C@H]1c1ncc(-c2ccc(-c3ccc(-c4cnc([C@@H]5CCCN5C(=O)[C@H](Cc5ccccc5)NC(=O)OC)[nH]4)cc3)cc2)[nH]1` [cj-148, methyl ((1S)-1-benzyl-2-((2S)-2-(5-(4′-(2-((2S)-1-((2S)-2-((methoxycarbonyl)amino)-3-phenylpropanoyl)-2-pyrrolidinyl)-1H-imidazol-5-yl)-4-biphenylyl)-1H-imidazol-2-yl)-1-pyrrolidinyl)-2-oxoethyl)carbamate], the EC50 lay within 1 to 99 nM.

On to `COC(=O)N[C@H]1CC[C@@H](C(=O)N2CCC[C@H]2c2ncc(-c3ccc(-c4ccc(-c5cnc([C@@H]6CCCN6C(=O)[C@H]6CC[C@@H](NC(=O)OC)CC6)[nH]5)cc4)cc3)[nH]2)CC1` [cj-150, dimethyl (4,4′-biphenyldiylbis(1H-imidazole-5,2-diyl(2S)-2,1-pyrrolidinediylcarbonylcis-4,1-cyclohexanediyl))biscarbamate], for which the EC50 is 1 to 99 nM.

On to `COC(=O)N[C@H]1CC[C@H](C(=O)N2CCC[C@H]2c2ncc(-c3ccc(-c4ccc(-c5cnc([C@@H]6CCCN6C(=O)[C@H]6CC[C@H](NC(=O)OC)CC6)[nH]5)cc4)cc3)[nH]2)CC1` [cj-151, dimethyl (4,4′-biphenyldiylbis(1H-imidazole-5,2-diyl(2S)-2,1-pyrrolidinediylcarbonyltrans-4,1-cyclohexanediyl))biscarbamate], for which the EC50 lay within 1 to 99 nM.

In the case of `CCN(CC)[C@H]1CC[C@@H](C(=O)N2CCC[C@H]2c2ncc(-c3ccc(-c4ccc(-c5cnc([C@@H]6CCCN6C(=O)[C@H]6CC[C@@H](N(CC)CC)CC6)[nH]5)cc4)cc3)[nH]2)CC1` [cj-152], the EC50 was 1 to 99 nM.

With `COC(=O)N[C@@H](Cc1cscn1)C(=O)N1CCC[C@H]1c1ncc(-c2ccc(-c3ccc(-c4cnc([C@@H]5CCCN5C(=O)[C@H](Cc5cscn5)NC(=O)OC)[nH]4)cc3)cc2)[nH]1` [cj-153, methyl ((1S)-2-((2S)-2-(5-(4′-(2-((2S)-1-((2S)-2-((methoxycarbonyl)amino)-3-(1,3-thiazol-4-yl)propanoyl)-2-pyrrolidinyl)-1H-imidazol-5-yl)-4-biphenylyl)-1H-imidazol-2-yl)-1-pyrrolidinyl)-2-oxo-1-(1,3-thiazol-4-ylmethyl)ethyl)carbamate], the EC50 lay within 0.001 to 0.999 nM.

As to `COC(=O)N[C@@H](Cc1cn(Cc2ccccc2)cn1)C(=O)N1CCC[C@H]1c1ncc(-c2ccc(-c3ccc(-c4cnc([C@@H]5CCCN5C(=O)[C@H](Cc5cn(Cc6ccccc6)cn5)NC(=O)OC)[nH]4)cc3)cc2)[nH]1` [cj-154, methyl ((1S)-2-((2S)-2-(5-(4′-(2-((2S)-1-((2S)-3-(1-benzyl-1H-imidazol-4-yl)-2-((methoxycarbonyl)amino)propanoyl)-2-pyrrolidinyl)-1H-imidazol-5-yl)-4-biphenylyl)-1H-imidazol-2-yl)-1-pyrrolidinyl)-1-((1-benzyl-1H-imidazol-4-yl)methyl)-2-oxoethyl)carbamate], the EC50 fell in the range of 0.001 to 0.999 nM.

For the compound `COC(=O)N[C@H]1CCC[C@@H]1C(=O)N1CCC[C@H]1c1ncc(-c2ccc(-c3ccc(-c4cnc([C@@H]5CCCN5C(=O)[C@H]5CCC[C@@H]5NC(=O)OC)[nH]4)cc3)cc2)[nH]1` [cj-155, dimethyl (4,4′-biphenyldiylbis(1H-imidazole-5,2-diyl(2S)-2,1-pyrrolidinediylcarbonyl(1S,2S)-2,1-cyclopentanediyl))biscarbamate], the EC50 lay within 1 to 99 nM.

Regarding `COCC[C@H](NC(=O)OC)C(=O)N1CCC[C@H]1c1ncc(-c2ccc(-c3ccc(-c4cnc([C@@H]5CCCN5C(=O)[C@H](CCOC)NC(=O)OC)[nH]4)cc3)cc2)[nH]1` [cj-156, methyl ((1S)-3-methoxy-1-(((2S)-2-(5-(4′-(2-((2S)-1-(N-(methoxycarbonyl)-O-methyl-L-homoseryl)-2-pyrrolidinyl)-1H-imidazol-5-yl)-4-biphenylyl)-1H-imidazol-2-yl)-1-pyrrolidinyl)carbonyl)propyl)carbamate], the EC50 is 0.001 to 0.999 nM.

These data come from patent US8574563B2 (Bristol-Myers Squibb Company, priority 2006, dated 2013).
